Data as given in PubChem BioAssay (NCI).
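Cells were grown in 96-well plates and exposed to each compound for 48 hours at five concentrations; endpoints were interpolated linearly between bracketing concentrations, or set to the highest concentration if not reached. TGI denotes the concentration required for complete inhibition of growth.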

Columns and labels:
Assay in all cases: DTP human tumour cell line panel, 48 h
[1] = tested on: HCC-2998 colon
[2] = tested on: DLD-1 colon
[3] = tested on: HCT-116 colon
[4] = tested on: OVCAR-4 ovarian
[5] = tested on: SR leukemia
[6] = tested on: 786-0 renal
[7] = tested on: UACC-62 melanoma
[8] = tested on: KM20L2 colon
[9] = tested on: HOP-18 NSCLC

Measured: TGI

Cn1c2[n+](c3nc(N)[nH]c(=O)c31)C1OC(C2)C(O)C1O (centres undefined)
> 100 µM: [1] | [2] | [3] | [4] | [5] | [6] | [7] | [8] | [9]
